Test results from ChEMBL document CHEMBL4402520, “Synthetic routes and structure-activity relationships (SAR) of anti-HIV agents: A key review” (Eur J Med Chem, 2019).
Converted amounts (≈) assume the structure as drawn.

Experiments:
[1] = system: Human immunodeficiency virus 1; test: Antiviral activity against wild type HIV1 3B infected in human MT4 cells using [3H]dGTP by radio-labelled binding assay; format: functional, organism-based; conditions: Human immunodeficiency virus 1, 3B
[2] = system: Human immunodeficiency virus 1; test: Antiviral activity against HIV1 3B infected in human C8166 cells; format: functional, organism-based
[3] = Selectivity index, ratio of CC50 for human C8166 cells to EC50 for HIV1 3B infected in human C8166 cells; format: toxicity, cell-based; conditions: read-out: Selectivity Index
[4] = Inhibition of HIV reverse transcriptase; set-up: species or system Human immunodeficiency virus
[5] = system: Human immunodeficiency virus 1; test: Antiviral activity against wild type HIV1 3B infected in human TZM-bl cells assessed as viral infection at 50 ug/ml after 1 hr relative to control; format: functional; conditions: Human immunodeficiency virus 1, 3B
[6] = system: TZM; test: Cytotoxicity against human TZM-bl cells assessed as reduction in cell viability after 4 hrs by MTT assay; format: functional
[7] = system: Human immunodeficiency virus 1; test: Antiviral activity against wild type HIV1; format: functional, organism-based
[8] = system: Human immunodeficiency virus 1; test: Antiviral activity against HIV1; format: functional, organism-based
[9] = system: Human immunodeficiency virus 2; test: Antiviral activity against HIV2 ROD after 48 hrs […]; format: functional, organism-based; conditions: Human immunodeficiency virus 2, ROD
[10] = system: Human immunodeficiency virus 1; test: Antiviral activity against HIV1 3B after 48 hrs […]; format: functional, organism-based; conditions: Human immunodeficiency virus 1, 3B
[11] = system: TZM; test: Cytotoxicity against human TZM-bl cells; format: functional
[12] = system: Human immunodeficiency virus 1; test: Antiviral activity against wild type HIV1 3B infected in human TZM-bl cells; format: functional, organism-based; conditions: Human immunodeficiency virus 1, 3B
[13] = system: Human immunodeficiency virus; test: Antiviral activity against HIV; format: functional, organism-based; conditions: Human immunodeficiency virus 1
[14] = Selectivity index, ratio of CC50 for human TZM-bl cells to EC50 for wild type HIV1 3B infected in human TZM-bl cells; format: toxicity, cell-based; conditions: read-out: Selectivity Index
[15] = system: Human immunodeficiency virus 1; test: Antiviral activity against wild type HIV1 3B infected in human TZM-bl cells after 4 days by ELISA; format: functional, organism-based; conditions: Human immunodeficiency virus 1, 3B, 96 h
[16] = system: Human immunodeficiency virus 1; test: Antiviral activity against HIV1 3B infected in human MT4 cells; format: functional, organism-based; conditions: Human immunodeficiency virus 1, 3B
[17] = system: Human immunodeficiency virus 1; test: Antiviral activity against HIV1 3B; format: functional, organism-based; conditions: Human immunodeficiency virus 1, 3B
[18] = system: Human immunodeficiency virus 2; test: Antiviral activity against HIV2 ROD; format: functional, organism-based; conditions: Human immunodeficiency virus 2, ROD
[19] = target: T1, Human immunodeficiency virus type 1 reverse transcriptase (Human immunodeficiency virus 1, UniProt Q72547); test: Inhibition of wild type HIV-1 reverse transcriptase
[20] = Inhibition of HIV-2 ROD9 integrase E92Q/N155H double mutant; set-up: species or system Human immunodeficiency virus 2
[21] = Inhibition of HIV-2 ROD9 integrase Q148H mutant; set-up: species or system Human immunodeficiency virus 2
[22] = Inhibition of HIV-2 ROD9 integrase G140S mutant; set-up: species or system Human immunodeficiency virus 2
[23] = Inhibition of HIV-2 ROD9 integrase N155H mutant; set-up: species or system Human immunodeficiency virus 2
[24] = Inhibition of HIV-2 ROD9 integrase E92Q/Y143C double mutant; set-up: species or system Human immunodeficiency virus 2
[25] = Inhibition of HIV-2 ROD9 integrase Q148R mutant; set-up: species or system Human immunodeficiency virus 2
[26] = Inhibition of HIV-2 ROD9 integrase T97A/N155H double mutant; set-up: species or system Human immunodeficiency virus 2
[27] = Inhibition of HIV-2 ROD9 integrase G140S/Q148R double mutant; set-up: species or system Human immunodeficiency virus 2
[28] = Inhibition of HIV-2 ROD9 integrase T97A/Y143C double mutant; set-up: species or system Human immunodeficiency virus 2
[29] = Inhibition of HIV-2 ROD9 integrase Y143C mutant; set-up: species or system Human immunodeficiency virus 2
[30] = Inhibition of HIV-2 ROD9 integrase E92Q mutant; set-up: species or system Human immunodeficiency virus 2
[31] = target: T2, Human immunodeficiency virus type 2 integrase (Human immunodeficiency virus 2, UniProt P89582); test: Inhibition of wild type HIV-2 ROD9 integrase
T2 sequence (P89582 whole entry): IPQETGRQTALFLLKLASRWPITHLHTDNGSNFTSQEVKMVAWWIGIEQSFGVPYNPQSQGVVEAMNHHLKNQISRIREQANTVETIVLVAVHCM

[32] = Inhibition of HIV-2 ROD9 integrase T97A mutant; set-up: species or system Human immunodeficiency virus 2
[33] = target: T1, Human immunodeficiency virus type 1 reverse transcriptase; test: Inhibition of HIV-1 reverse transcriptase after 1 hr by ELISA
[34] = system: C8166; test: Cytotoxicity against human C8166 cells assessed as reduction in cell viability; format: functional, cell-based
[35] = system: HeLa; test: Cytotoxicity against human HeLa cells expressing CD4-LTR-beta-gal assessed as reduction in cell viability; format: functional
[36] = system: Human immunodeficiency virus; test: Antiviral activity against HIV infected in human HeLa cells expressing CD4-LTR-beta-gal; format: functional, organism-based; conditions: Human immunodeficiency virus 1, HeLa
[37] = Human immunodeficiency virus 1, 3B, C8166

Cc1cccc(N2C(=O)CSC2c2c(F)cccc2F)n1 (centres undefined)
IC50 [1]: 82 nM

CC(C)c1c(CC2CCCCC2)nc(SCC(=O)c2ccccc2)[nH]c1=O
EC50 [2]: 0.012 to 101 nM
selectivity ratio [3]: 691 to 6.32e+06

COc1ccc(N2CCN(C(=O)CN(Cc3ccccc3)c3ccc(Cl)cc3)CC2)cc1
IC50 [4]: 77500 nM

CC(C)c1c(CC2CCCCC2)nc(SCc2ccccc2)[nH]c1=O
EC50 [2, 37]: 0.025 nM
selectivity ratio [3]: 691 to 6.32e+06

NC1=CNC(=O)/C1=N/Nc1ccc([N+](=O)[O-])cc1
inhibition at 50 µg/mL [5]: 91%
Activity [6]: 80%

N#Cc1ccc(Nc2nccc(Oc3ccccc3F)n2)cc1
EC50 [7]: 5.8 nM

CC(C)(C)OC(=O)n1ccc2ccc(-c3ccc4ccn(Cc5cccc(C(=O)O)c5)c4c3)cc21
IC50 [8]: 800 nM

Cc1ccc(NC(=O)CSC2[Se]N=NC2c2ccc(Cl)c(Cl)c2)c([N+](=O)[O-])c1 (centres undefined)
EC50 [9]: > 26300 nM
EC50 [10]: 5420 nM

O=C(CSC1[Se]N=NC1c1ccc(Cl)c(Cl)c1)Nc1ccccc1F (centres undefined)
EC50 [9]: > 27000 nM
EC50 [10]: > 27000 nM

CCOC(=O)C(N)(c1c[nH]c2cccc(C(=O)OC)c12)C(F)(F)F (centres undefined)
CC50 [11]: 110000 nM
EC50 [12]: 60 nM

Cc1cc(C)cc(Cn2c(=O)cc(N)n(Cc3ccncc3)c2=O)c1
EC50 [13]: 30 nM

O=c1[nH]c(=O)n([C@H]2C[C@H](O)[C@@H](CO)O2)cc1CCCOc1ccc(OCc2ccccc2)cc1
IC50 [8]: 2180 nM

O=C(CSC1[Se]N=NC1c1ccc(Cl)c(Cl)c1)Nc1ccccc1Br (centres undefined)
EC50 [9]: > 23600 nM
EC50 [10]: > 23600 nM

NC1=CNC(=O)/C1=N/Nc1cccc(Cl)c1
inhibition at 50 µg/mL [5]: 93%
Activity [6]: 52%

O=c1[nH]c(=O)n([C@H]2C[C@H](O)[C@@H](CO)O2)cc1C#CCOc1ccc(OCc2ccccc2)cc1
IC50 [8]: 6680 nM

NC1=CNC(=O)/C1=N/Nc1ccc(Br)cc1
inhibition at 50 µg/mL [5]: 98%
Activity [6]: 40%

CCCC1OC(=O)c2ccccc2C1(Cl)c1ccc(F)cc1 (centres undefined)
selectivity ratio [14]: 0.8
EC50 [15]: 314000 nM
CC50 [11]: 251000 nM

Cc1cc(C)cc(S(=O)(=O)c2c(C(=O)NCc3ccncc3)[nH]c3ccc(Cl)cc23)c1
EC50 [16]: 2 nM

O=C(CN(Cc1ccccc1)c1ccc(Cl)cc1)N1CCN(C(c2ccccc2)c2ccccc2)CC1
IC50 [4]: > 100000 nM

CCC1OC(=O)c2ccccc2C1(Cl)c1ccc(F)cc1 (centres undefined)
selectivity ratio [14]: 2.1
EC50 [15]: 126000 nM
CC50 [11]: 263000 nM

O=C(CSC1[Se]N=NC1c1ccc(Cl)c(Cl)c1)Nc1ccccc1Cl (centres undefined)
EC50 [9]: > 23400 nM
EC50 [10]: > 23400 nM

Cc1cccc(N2C(=O)CSC2c2c(F)cccc2Cl)n1 (centres undefined)
IC50 [1]: 53 nM

CC(=O)c1ccc(NC(=O)CSC2[Se]N=NC2c2ccc(Cl)c(Cl)c2)c(Br)c1 (centres undefined)
EC50 [9]: > 19000 nM
EC50 [10]: 2450 nM

Cn1cc(C(=O)O)c(=O)c2ccc(N3CCN(c4nc5ccccc5s4)CC3)nc21
EC50 [17]: 0.03 µg/mL (≈ 0.0712 µM)
EC50 [18]: 0.02 µg/mL (≈ 0.0475 µM)

O=C(N[C@H]1C(=O)Nc2ccccc2C2CCCN21)OCc1ccccc1 (some centres undefined)
EC50 [8]: 860 nM

O=C(CN(Cc1ccccc1)c1ccc(Cl)cc1)N1CCN(c2cccc(Cl)c2Cl)CC1
IC50 [4]: 12300 nM

CC1OC(=O)c2ccccc2C1(Cl)c1ccccc1 (centres undefined)
selectivity ratio [14]: 10
EC50 [15]: 29300 nM
CC50 [11]: 293000 nM

COC(=O)CCCC=C(c1cc(Cl)c(OC)c(C(=O)SC)c1)c1cc(Cl)c(OC)c(C(=O)SC)c1
EC50 [19]: 1600 nM

O=C(CC1(O)C(=O)Nc2ccc(Cl)cc21)c1ccccc1Cl (centres undefined)
IC50 [2, 37]: 760 nM

C[C@@H]1CCO[C@H]2Cn3cc(C(=O)NCc4ccc(F)cc4F)c(=O)c(O)c3C(=O)N12 [DOLUTEGRAVIR]
EC50 [20]: 25 nM
EC50 [21]: 3.5 nM
EC50 [22]: 3.2 nM
EC50 [23]: 5 nM
EC50 [24]: 15 nM
EC50 [25]: 5.7 nM
EC50 [26]: 27 nM
EC50 [27]: 108 nM
EC50 [28]: > 10000 nM
EC50 [29]: 7.7 nM
EC50 [30]: 7.7 nM
EC50 [31]: 2.3 nM
EC50 [32]: 3.2 nM

COc1ccc2c(c1)CCCN2CCC(=O)N1CCN(c2ccccc2)CC1
IC50 [33]: 24200 nM
selectivity ratio [3]: 5.9
IC50 [34]: 83.2 µg/mL (≈ 219 µM)

Cc1ccc(NC(=O)CSC2[Se]N=NC2c2ccc(Cl)c(Cl)c2)cc1 (centres undefined)
EC50 [9]: > 13300 nM
EC50 [10]: 6650 nM

CC1OC(=O)c2ccccc2C1(Cl)c1ccc(C#Cc2ccccc2)cc1 (centres undefined)
selectivity ratio [14]: 0.9
EC50 [15]: 242000 nM
CC50 [11]: 215000 nM

COc1ccc2c(c1)CCCN2CCC(=O)N1CCN(c2cccc(Cl)c2)CC1
IC50 [33]: 18600 nM
selectivity ratio [3]: 5.3
IC50 [34]: 97.5 µg/mL (≈ 236 µM)

Cc1cn([C@H]2C[C@H](N=[N+]=[N-])[C@@H](CO)O2)c(=O)[nH]c1=O [ZIDOVUDINE]
IC50 [34]: 1570 µg/mL (≈ 5860 µM)

O=C(O)/C(O)=C/C(=O)c1cn(Cc2ccc(F)cc2)c2cc(N3CCN(CCCCl)CC3)ccc2c1=O
CC50 [35]: > 50000 nM
IC50 [36]: 50 nM

CCc1c(CC2CCCCC2)nc(SCC(=O)c2ccccc2)[nH]c1=O
EC50 [2, 37]: 0.012 nM
selectivity ratio [3]: 6.32e+06

O=C(CN(Cc1ccccc1)c1ccc(Cl)cc1)N1CCN(c2ccc([N+](=O)[O-])cc2)CC1
IC50 [4]: 14200 nM

COC(=O)C(N)(c1c[nH]c2ccc(F)cc12)C(F)(F)F (centres undefined)
CC50 [11]: 49300 nM
EC50 [12]: 45 nM

O=C1OC(c2ccccc2Cl)C(Cl)c2ccccc21 (centres undefined)
selectivity ratio [14]: 11.1
EC50 [15]: 12300 nM
CC50 [11]: 136000 nM

COc1ccc2c(c1)CCCN2CCC(=O)N1CCN(c2ccccc2C)CC1
IC50 [33]: 12500 nM
selectivity ratio [3]: 24.2
IC50 [34]: 114 µg/mL (≈ 291 µM)

COc1ccc(CNC(=O)c2cc(C(C)(C)NC(=O)OCc3ccccc3)cc(O)c2O)cc1
EC50 [8]: 150 nM

COc1ccccc1C(=O)CC1(O)C(=O)Nc2ccc(Cl)cc21 (centres undefined)
IC50 [33]: 270 nM

COc1ccccc1N1CCN(C(=O)CN(Cc2ccccc2)c2ccc(Cl)cc2)CC1
IC50 [4]: 16300 nM

Cn1ccc2c1S(=O)(=O)c1ccccc1NC2=O
EC50 [8]: 14000 nM

Cn1cc(C(=O)O)c(=O)c2ccc(N3CCN(c4nccs4)CC3)nc21
EC50 [17]: 3.15 µg/mL (≈ 8.48 µM)
EC50 [18]: 0.922 µg/mL (≈ 2.48 µM)

CC(C)(NC(=O)OCc1ccccc1)c1cc(O)c(O)c(C(=O)NCc2ccccc2Cl)c1
EC50 [8]: 140 nM

Cn1cc(C(=O)O)c(=O)c2ccc(N3CCN(c4cccc(C(F)(F)F)c4)CC3)nc21
EC50 [17]: > 0.41 µg/mL
EC50 [18]: > 0.41 µg/mL

Cc1cccc(N2C(=O)CSC2c2c(Cl)cccc2Cl)n1 (centres undefined)
IC50 [1]: 44 nM

Cc1ccccc1NC(=O)CSC1[Se]N=NC1c1ccc(Cl)c(Cl)c1 (centres undefined)
EC50 [9]: > 22300 nM
EC50 [10]: 5560 nM

Cn1cc(C(=O)O)c(=O)c2ccc(N3CCN(c4ccccn4)CC3)nc21
EC50 [17]: 0.62 µg/mL (≈ 1.7 µM)
EC50 [18]: 0.55 µg/mL (≈ 1.51 µM)
